Where two headings read alike, the source gives them in different places.
What was measured:
[1] = test system: 2,3-DPG levels in whole blood; experiment: PK/PD study in wild type mice, 2,3-DPG levels in blood; type: in vivo, Balb/c mice; conditions: oral QD x7, doses ≥120 mg/kg (120 and 240 mg/kg), blood 24 h after dosing
Procedure: (§1) Two pharmacokinetic (PK)/phamacodynamic (PD) studies were conducted in Balb/c mice that were administered Compound 1 once daily by oral gavage (formulated in 10% Cremophor EL/10% PG/80% DI water) for 7 days (QD×7) at doses of 0 (vehicle), 3.75, 7.5, 15, 30, 60 mg/kg (Study 1); 0 (vehicle), 7.5, 15, 30, 60, 120, or 240 mg/kg (Study 2). On the 7th day, whole blood was collected 24 hours after dosing and snap frozen. Samples were later thawed and analyzed by LC/MS for 2,3-DPG and ATP levels.

PKR-R510Q [2] = target: T1, PKR-R510Q (Homo sapiens, UniProt P30613, R510Q); experiment: Enzyme assay of Example 3 (kinetic parameters, activation), PKR-R510Q; type: biochemical; conditions: for Vmax (normalized): 2 μM Compound 1, normalized within row
T1 sequence (P30613 whole entry R510Q): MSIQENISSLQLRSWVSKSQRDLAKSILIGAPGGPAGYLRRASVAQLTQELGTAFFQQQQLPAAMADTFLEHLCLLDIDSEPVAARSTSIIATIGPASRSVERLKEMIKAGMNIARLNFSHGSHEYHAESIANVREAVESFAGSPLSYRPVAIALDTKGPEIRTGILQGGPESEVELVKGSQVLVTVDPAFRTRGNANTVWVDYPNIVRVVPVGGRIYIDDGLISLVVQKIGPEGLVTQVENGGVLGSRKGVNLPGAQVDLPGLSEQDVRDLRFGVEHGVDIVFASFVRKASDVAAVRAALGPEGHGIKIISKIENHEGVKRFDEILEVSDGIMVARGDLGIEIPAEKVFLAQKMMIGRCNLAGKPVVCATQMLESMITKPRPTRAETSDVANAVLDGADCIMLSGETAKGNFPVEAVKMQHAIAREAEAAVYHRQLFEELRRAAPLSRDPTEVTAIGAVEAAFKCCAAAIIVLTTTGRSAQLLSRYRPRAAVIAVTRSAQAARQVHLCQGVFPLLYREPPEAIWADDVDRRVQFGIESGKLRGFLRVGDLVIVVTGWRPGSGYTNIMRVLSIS
Procedure: (§2) Tests were conducted in the presence and absence of fructose-1,6-bisphosphate (FBP), a known allosteric activator of PKR.

PKR in mouse RBCs = target: T2, PKR in mouse RBCs (Mus musculus, UniProt P53657); experiment: PKR activation in mouse red blood cells; type: cell-based
T2 construct: Mouse RBCs were isolated fresh from whole blood using a Ficoll gradient; endogenous in cells; host or cells: mouse red blood cells isolated fresh from whole blood
T2 sequence (P53657 whole entry): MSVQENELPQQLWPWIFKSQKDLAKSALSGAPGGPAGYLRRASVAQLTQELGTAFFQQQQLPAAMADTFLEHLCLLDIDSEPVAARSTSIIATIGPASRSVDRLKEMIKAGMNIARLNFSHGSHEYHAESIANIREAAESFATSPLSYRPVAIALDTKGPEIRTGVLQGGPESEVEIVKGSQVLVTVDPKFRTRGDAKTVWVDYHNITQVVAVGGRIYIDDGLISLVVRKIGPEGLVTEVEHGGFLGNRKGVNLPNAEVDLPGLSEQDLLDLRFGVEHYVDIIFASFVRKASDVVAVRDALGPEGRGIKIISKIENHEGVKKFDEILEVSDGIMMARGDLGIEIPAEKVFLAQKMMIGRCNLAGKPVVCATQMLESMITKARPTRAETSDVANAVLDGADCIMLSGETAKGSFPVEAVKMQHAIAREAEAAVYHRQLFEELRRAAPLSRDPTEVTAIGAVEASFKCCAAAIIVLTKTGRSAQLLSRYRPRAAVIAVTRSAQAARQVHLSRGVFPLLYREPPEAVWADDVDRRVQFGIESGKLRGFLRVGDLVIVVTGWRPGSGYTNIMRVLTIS
Excerpt: Mouse RBCs were isolated fresh from whole blood using a Ficoll gradient and assayed with methods similar to those used in the human RBCs assays.

wt-PKR = wt-PKR (Homo sapiens, UniProt P30613); experiment: Enzyme assay of Example 3 (kinetic parameters, activation), wt-PKR; type: biochemical
wt-PKR, sequence (P30613 whole entry): as the sequence (P30613 whole entry R510Q) above, with Q510R counted along it
Procedure: as §2

[3] = PK/PD study in wild type mice, tolerability; type: in vivo; conditions: oral QD x7, both studies
Procedure: as §1

[4] = PK/PD study in wild type mice, exposure; type: in vivo, Balb/c mice; conditions: oral; for AUC(0-t): Balb/c, mouse, in vivo, read-out: AUC0-24
Procedure: as §1

2,3-DPG blood levels = experiment: SAD/MAD study in healthy volunteers, blood 2,3-DPG levels (LC-MS/MS); type: in vivo, human
Excerpt: (§3) This is a first-in-human (FIH), Phase 1 study of Compound 1 that will characterize the safety, PK, and PD of Compound 1 after a single dose and after repeated dosing first in healthy adult volunteers and then in adolescents or adults with sickle cell disease. Initially, a dose range of Compound 1 in single ascending dose (SAD) escalation cohorts will be explored in healthy subjects. Enrollment of healthy subjects into 2-week multiple ascending dose (MAD) escalation cohorts will be initiated once the safety and PK from at least two SAD cohorts is available to inform the doses for the 2-week MAD portion of the study. The MAD cohorts will then run in parallel to the single dose cohorts. A single dose cohort is planned to understand food effects (FE) on the PK of Compound 1. […] Multiple dose studies in SCD subjects will then be initiated upon completion of MAD studies in healthy volunteers. Compound 1 will be administered in 25 mg and 100 mg tablets delivered orally.
(§4) Four healthy SAD cohorts were evaluated at doses of 200, 400, 700, and 1000 mg, and four healthy MAD cohorts received 200 to 600 mg total daily doses for 14 days at QD or BID dosing (100 mg BID, 200 mg BID, 300 mg BID, and 400 mg QD). In the food effect (FE) cohort, 10 healthy subjects received 200 mg of Compound 1 QD with and without food.
In the SAD cohorts, the subjects' blood 2,3-DPG levels were measured periodically after dosing by a qualified LC-MS/MS method for the quantitation of 2,3-DPG in blood. Decreased 2,3-DPG blood levels were observed 6 hours following a single dose of Compound 1 at all dose levels (earlier timepoints were not collected). Maximum decreases in 2,3-DPG levels generally occurred ˜24 hours after the first dose with the reduction sustained ˜48-72 hr postdose. Table 12 reports the median percentage change in 2,3-DPG blood levels, relative to baseline, measured over time in healthy volunteers after a single dose of Compound 1 (200 mg, 400 mg, 700 mg, or 1000 mg) or placebo. Accordingly, the median reduction in the concentration of 2,3-DPG, relative to baseline, was at least about 30% at all dose levels tested 24 hours after administration of the single dose.
In the MAD cohorts, the subjects' blood 2,3-DPG levels were measured periodically after dosing by a qualified LC-MS/MS method for the quantitation of 2,3-DPG in blood. The maximum decrease in 2,3-DPG on Day 14 was 55% from baseline (median). […] Table 13 reports the median percentage change in 2,3-DPG blood levels, relative to baseline, measured over time after the first dose on days 1 and 14 in healthy volunteers who received daily doses of Compound 1 (100 mg BID, 200 mg BID, or 300 mg BID) or placebo for 14 days. Accordingly, the median reduction in the concentration of 2,3-DPG, relative to baseline, was at least about 25% at all dose levels tested 24 hours after administration of the first dose on day 1 and at least about 40% at all dose levels tested 24 hours after administration of the first dose on day 14.
The following procedures are employed for the analysis of ATP and 2,3-DPG in human whole blood K2EDTA using a protein precipitation extraction procedure and analysis by LC-MS/MS.

ATP blood levels = experiment: SAD/MAD study in healthy volunteers, blood ATP levels (LC-MS/MS); type: in vivo, human; conditions: MAD cohorts, 60 hours after the last dose
Excerpt: This is a first-in-human (FIH), Phase 1 study of Compound 1 that will characterize the safety, PK, and PD of Compound 1 after a single dose and after repeated dosing first in healthy adult volunteers and then in adolescents or adults with sickle cell disease. Initially, a dose range of Compound 1 in single ascending dose (SAD) escalation cohorts will be explored in healthy subjects. Enrollment of healthy subjects into 2-week multiple ascending dose (MAD) escalation cohorts will be initiated once the safety and PK from at least two SAD cohorts is available to inform the doses for the 2-week MAD portion of the study. The MAD cohorts will then run in parallel to the single dose cohorts. […]
Four healthy SAD cohorts were evaluated at doses of 200, 400, 700, and 1000 mg, and four healthy MAD cohorts received 200 to 600 mg total daily doses for 14 days at QD or BID dosing (100 mg BID, 200 mg BID, 300 mg BID, and 400 mg QD). […]
In the MAD cohorts, the subjects' blood ATP levels were measured on day 14 by a qualified LC-MS/MS method for the quantitation of ATP in blood. […] Table 14 reports the median percentage change in blood ATP levels, relative to baseline, measured over time after the first dose on day 14 in healthy volunteers who received daily doses of Compound 1 (100 mg BID, or 200 mg BID) or placebo for 14 days. […]

PKR(G332S) = PKR(G332S) (Homo sapiens, UniProt P30613, G332S); experiment: Luminescence Assay (Kinase Glo Plus), PKR G332S; type: biochemical; conditions: read-out: AC50 (PKRG332S)
PKR(G332S), sequence (P30613 whole entry G332S): as the sequence (P30613 whole entry R510Q) above, with G332S, Q510R counted along it
Procedure: (§5) For each tested compound, the ability to activate PKR was determined using the following Luminescence Assay. The effect of phosphorylation of adenosine-5′-diphosphate (ADP) by PKR is determined by the Kinase Glo Plus Assay (Promega) in the presence or absence of FBP (D-fructose-1,6-diphosphate; BOC Sciences, CAS: 81028-91-3) as follows. Unless otherwise indicated, all reagents are purchased from Sigma-Aldrich. All reagents are prepared in buffer containing 50 mM Tris-HCl, 100 mM KCl, 5 mM MgCl2, and 0.01% Triton X100, 0.03% BSA, and 1 mM DTT. Enzyme and PEP (phosphoenolpyruvate) are added at 2× to all wells of an assay-ready plate containing serial dilutions of test compounds or DMSO vehicle. Final enzyme concentrations for PKR(wt), PKR(R510Q), and PKR(G332S) are 0.8 nM, 0.8 nM, and 10 nM respectively. Final PEP concentration is 100 μM. The Enzyme/PEP mixture is incubated with compounds for 30 minutes at RT before the assay is initiated with the addition of 2×ADP and KinaseGloPlus. Final concentration of ADP is 100 μM. […] For assays containing FBP, that reagent is added at 30 μM upon reaction initiation. Reactions are allowed to progress for 45 minutes at RT until luminescence is recorded by the BMG PHERAstar FS Multilabel Reader. The compound is tested in triplicate at concentrations ranging from 42.5 μM to 2.2 nM in 0.83% DMSO. AC50 measurements were obtained by the standard four parameter fit algorithm of ActivityBase XE Runner (max, min, slope and AC50). The AC50 value for a compound is the concentration (μM) at which the activity along the four parameter logistic curve fit is halfway between minimum and maximum activity.
(§6) As set forth in Tables 2 and 3 below and in FIG. 1, AC50 values are defined as follows: ≤0.1 μM (+++); >0.1 μM and ≤1.0 μM (++); >1.0 μM and ≤40 μM (+); >40 μM (0).

[5] = SAD/MAD/food effect study in healthy volunteers, pharmacokinetics; type: in vivo, human
Excerpt: as §3, §4

[6] = SAD/MAD study in healthy volunteers, safety; type: in vivo, human; conditions: SAD and MAD cohorts of healthy volunteers
Excerpt: as §3, with “orally. Four healthy SAD cohorts were evaluated at doses of 200, 400, 700, and 1000 mg, and four healthy MAD cohorts received 200 to 600 mg total daily doses for 14 days at QD or BID dosing (100 mg BID, 200 mg BID, 300 mg BID, and 400 mg QD). In the food effect (FE) cohort, 10 healthy subjects received 200 mg of Compound 1 QD with and without food.” for “orally.”

PKR-R510Q [7] = target: T1, PKR-R510Q; experiment: Luminescence Assay (Kinase Glo Plus), PKR R510Q; type: biochemical; conditions: read-out: AC50 (PKRR510Q)
Procedure: as §5, §6

[8] = target: T3, wt-PKR in mature human erythrocytes (Homo sapiens, UniProt P30613); experiment: PKR activation in human red blood cells ex vivo (Biovision Pyruvate Kinase Assay); type: cell-based; conditions: human RBCs
T3 construct: evaluated in purified RBCs purchased from Research Blood Components; host or cells: purified human red blood cells from donors
T3 sequence (P30613 whole entry): as the sequence (P30613 whole entry R510Q) above, with Q510R counted along it
Procedure: The activation of wt-PKR by Compound 1 in mature human erythrocytes ex vivo was evaluated in purified RBCs purchased from Research Blood Components. Cells treated with Compound 1 for 3 hr in glucose-containing media were washed, lysed, and assayed using a Biovision Pyruvate Kinase Assay (K709-100). The assay was repeated multiple times to account for donor-to-donor variability and the relatively narrow dynamic range.

PKR(wt) = PKR(wt) (Homo sapiens, UniProt P30613); experiment: Luminescence Assay (Kinase Glo Plus), PKR wild type; type: biochemical
PKR(wt), sequence (P30613 whole entry): as the sequence (P30613 whole entry R510Q) above, with Q510R counted along it
Procedure: as §5, with “AC50 measurements were obtained by the standard four parameter fit algorithm of ActivityBase XE Runner (max, min, slope and AC50). The AC50 value for a compound is the concentration (μM) at which the activity along the four parameter logistic curve fit is halfway between minimum and maximum activity.” left out

[9] = PEP at or below Km, rate of ATP formation

Compound: O=C([C@H](CO)c1ccccc1)N1CC2=C(C1)CN(S(=O)(=O)c1cnc3c(c1)OCCO3)C2 (single isomer, unassigned) [Compound 1]
- Reduction of 2,3-DPG levels [1]: > 30%
- Vmax (normalized) (PKR-R510Q [2]; 30 μM FBP): 1.29
- Vmax (normalized) (PKR-R510Q [2]; No FBP): 1.56
- AC50 (PKR-R510Q [2]; PEP at or below Km): < 100 nM
- Maximum-fold Activation (PKR-R510Q [2]; [9]): <3.0
- EC50 (PKR in mouse RBCs; individual replicates, read-out: EC50): < 125 nM
- EC50 (PKR in mouse RBCs; mean of replicates, read-out: EC50 (nM), Mean): < 125 nM
- Vmax (normalized) (wt-PKR; 30 μM FBP, 2 μM Compound 1, normalized within row): 1.16
- Vmax (normalized) (wt-PKR; No FBP, 2 μM Compound 1, normalized to 1.00 relative to other values in same row): 1.14
- AC50 (wt-PKR; PEP at or below Km): < 50 nM
- Maximum-fold Activation (wt-PKR; [9]): <2.0
- Adverse clinical signs [3]: No adverse clinical signs were observed
- Body weight change compared with vehicle group [3]: no differences in body weight change
- AUC(0-t) ([4]; doses ≥60 mg/kg): > 4000 ng·h/mL
- AUC(0-t) ([4]; doses ≥120 mg/kg): > 5200 ng·h/mL
- Dose dependence of exposure [4]: dose-proportional
- 2,3-DPG levels after final dose (2,3-DPG blood levels; MAD cohorts, 72 hours after the final dose on Day 14): had not returned to baseline levels
- Mean maximum reduction in concentration of 2,3-DPG (2,3-DPG blood levels; MAD study): at least 50%
- Median reduction in concentration of 2,3-DPG relative to baseline (2,3-DPG blood levels; MAD, all dose levels, 24 hours after first dose on day 1): at least 25%
- Median reduction in concentration of 2,3-DPG relative to baseline (2,3-DPG blood levels; MAD, all dose levels, 24 hours after first dose on day 14): at least 40%
- Time of maximum decrease in 2,3-DPG levels after first dose (2,3-DPG blood levels; SAD cohorts): ~24 h
- Time postdose to which 2,3-DPG reduction was sustained (2,3-DPG blood levels; SAD cohorts): 48 to 72 h
- Mean maximum reduction in concentration of 2,3-DPG (2,3-DPG blood levels; SAD study): at least 40%
- Median reduction in concentration of 2,3-DPG relative to baseline (2,3-DPG blood levels; all single dose levels tested, 24 hours after administration): at least 30%
- PD half-life (2,3-DPG response) (2,3-DPG blood levels; healthy volunteers, calculated): ~20 h
- ATP levels relative to baseline after last dose (ATP blood levels): remained elevated
- AC50 (PKR(G332S)): 100 to 1000 nM
- PK linearity, multiple doses ([5]; 100-300 mg BID, 400 mg QD): linear PK
- Tmax ([5]; human, plasma, healthy volunteers, oral, postdose, read-out: Median Tmax): 1 h
- Dose dependence of single dose exposure ([5]; single doses ≥700 mg): greater than dose-proportional
- Serious adverse events / AEs leading to withdrawal [6]: No serious adverse events (SAEs) or AEs leading to withdrawal were reported
- AC50 (PKR-R510Q [7]): ≤ 100 nM
- EC50 ([8]; 3 hr treatment, individual replicates): < 50 nM
- Max-Min (%), Mean (mean maximum activation increase) ([8]; mean of replicates): <100%
- Emax ([8]; mean of replicates, read-out: Max-Min (%), Mean (mean maximum activation increase)): < 100%

Compound: O=C([C@@H](CO)c1ccccc1)N1CC2=C(C1)CN(S(=O)(=O)c1cnc3c(c1)OCCO3)C2 (single isomer, unassigned) [Compound 2]
- AC50 (PKR(G332S)): 1000 to 40000 nM
- AC50 (PKR(wt)): 1000 to 40000 nM
- AC50 (PKR-R510Q [7]): 1000 to 40000 nM
